US20210276967A1 (OSPEDALE SAN RAFFAELE S.R.L., priority 2018, published 2021)

Tested on: HBV genotype C
Assay: Antiviral activity in HepG2 cells transfected with HBV genotype C plasmid, extracellular HBV DNA qPCR
Type: cell-based
Conditions: Hepatitis B virus, read-out: HBV inhibition EC50 (Mean ± StD)
Method: HepG2 hepatoma cells transfected with HBV plasmids corresponding to the different isolates were used to perform antiviral assay against different HBV genotypes. HBV plasmids were obtained by cloning fragment containing of 1.1-mer HBV genome into the SacI/SaII sites of pcDNA3.1zeo(−) plasmid (V86520, Thermofisher Scientific). The HepG2 cell line was maintained in DMEM, supplemented with 10% of FBS, 1% glutamine and 1% penicillin/streptomycin.
HBV inhibition activity was determined on different HBV genotypes. For this purpose plasmids pcDNA3.1Zeo(−)-HBV1.1 expressing HBV genotypes A, B, C, D, E were transfected in HepG2 cell line and extracellular HBV quantification was performed by direct qPCR as described above. In detail, cells were seeded at 20,000 cells/well in polylisine coated 96-multiwell plates and 24 h later HBV plasmids were transfected with lipofection using manufacturer's procedure (Lipofectamine 3000 Reagent, Thermofisher Scientific). Five hours after transfection cells were extensively washed with PBS and compounds were added in 8-point dose-response curve in 0.5% DMSO as described above. After 4 days of incubation at 37° C. cells were subjected to cell viability assays and extracellular HBV quantification, in order to evaluate both the cytotoxic potential and the anti-viral activity of compounds, as described above. […]

Compound: Cc1cc(N)c(S(N)(=O)=O)cc1C(=O)Nc1cc(F)c(F)c(F)c1 [Example E17, 4-amino-2-methyl-5-sulfamoyl-N-(3,4,5-trifluorophenyl)benzamide]
- EC50: 0.0282 ± 0.0108 µM
